Assay results published in patent publication US12275729B2 (Merck Sharp & Dohme LLC, priority 2017, dated 2025).

biological target: IDO1 (Homo sapiens, UniProt P14902); test: IDO1 Cellular Assay in HeLa Cells Stimulated with IFNγ; format: cell-based; settings: about 48 hours, read-out: Hela IC50
Sequence (P14902 whole entry): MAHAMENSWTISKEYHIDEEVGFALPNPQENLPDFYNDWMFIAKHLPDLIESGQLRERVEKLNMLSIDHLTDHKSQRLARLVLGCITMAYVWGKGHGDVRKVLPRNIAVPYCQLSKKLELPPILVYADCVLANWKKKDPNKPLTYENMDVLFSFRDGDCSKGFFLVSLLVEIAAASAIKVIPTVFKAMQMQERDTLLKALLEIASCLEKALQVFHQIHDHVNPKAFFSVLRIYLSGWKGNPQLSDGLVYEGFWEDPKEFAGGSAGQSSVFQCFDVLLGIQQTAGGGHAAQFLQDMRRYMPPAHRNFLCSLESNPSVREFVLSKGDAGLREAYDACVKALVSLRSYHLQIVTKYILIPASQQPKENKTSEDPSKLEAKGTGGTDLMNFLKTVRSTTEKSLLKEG

IC50 | SMILES
298 nM | Cc1cc(C(=O)NCc2ccc3c(c2)CCCN3C(=O)CC(C)C)ccc1Cl [Example 4, 4-chloro-3-methyl-N-{[1-(3-methylbutanoyl)-1,2,3,4-tetrahydroquinolin-6-yl]methyl}benzamide]
5.1 nM | CC(C(=O)Nc1ccc(F)cc1)c1ccc2c(n1)CCCN2C(=O)C1CCOCC1 (stereo not drawn) [Example 167, N-(4-fluorophenyl)-2-[5-(oxane-4-carbonyl)-5,6,7,8-tetrahydro-1,5-naphthyridin-2-yl]propanamide]
77.9 nM | Cc1ccc(C(=O)NCc2ccc3c(c2)CCCN3C(=O)CC(C)C)cc1 [Example 5, 4-methyl-N-{[1-(3-methylbutanoyl)-1,2,3,4-tetrahydroquinolin-6-yl]methyl}benzamide]
9540 nM | CC(NC(=O)c1ccc(F)cc1)c1ccc2c(n1)C(F)(F)CCN2C(=O)C1CC1 (single isomer, unassigned) [Example 195, N-(1-(5-(cyclopropanecarbonyl)-8,8-difluoro-5,6,7,8-tetrahydro-1,5-naphthyridin-2-yl)ethyl)-4-fluorobenzamide]
41.4 nM | CC(C)CC(=O)N1CCCc2cc(CNC(=O)c3ccc(F)cc3)ccc21 [Example 11, 4-fluoro-N-{[1-(3-methylbutanoyl)-1,2,3,4-tetrahydroquinolin-6-yl]methyl}benzamide]
38.1 nM | CC(C(=O)Nc1ccc(F)cc1)c1ccc2c(n1)CCCN2C(=O)C1CCCCO1 (stereo not drawn) [Example 158, N-(4-fluorophenyl)-2-[5-(oxane-2-carbonyl)-5,6,7,8-tetrahydro-1,5-naphthyridin-2-yl]propanamide]
266 nM | CC(=O)N1CCCc2nc(C3(NC(=O)c4ccc(F)cc4)CC3)ccc21 [Example 174, N-[1-(5-acetyl-5,6,7,8-tetrahydro-1,5-naphthyridin-2-yl)cyclopropyl]-4-fluorobenzamide]
19.8 nM | COC(=O)N1CCCc2nc(C(C)C(=O)Nc3ccc(Cl)cc3)ccc21 (stereo not drawn) [Example 221, methyl 6-{1-[(4-chlorophenyl)amino]-1-oxopropan-2-yl}-3,4-dihydro-1,5-naphthyridine-1(2H)-carboxylate]
98.6 nM | CC(C)CC(=O)N1c2ccc(CNC(=O)c3ccc(Cl)cc3)cc2CCC1(C)C [Example 13, 4-chloro-N-{[2,2-dimethyl-1-(3-methylbutanoyl)-1,2,3,4-tetrahydroquinolin-6-yl]methyl}benzamide]
38.4 nM | Cc1n[nH]c(C(=O)N2CCCc3cc(C(C)C(=O)Nc4ccc(F)cc4)ccc32)n1 (stereo not drawn) [Example 42, N-(4-fluorophenyl)-2-[1-(3-methyl-1H-1,2,4-triazole-5-carbonyl)-1,2,3,4-tetrahydroquinolin-6-yl]propanamide]
25.9 nM | COC(C)C(=O)N1CCCc2cc([C@H](C)C(=O)Nc3ccc(F)cc3)ccc21 (single isomer, unassigned) [Example 76]

same assay, conditions: read-out: Hela IC50

IC50 | SMILES
1530 nM | CC(NC(=O)c1ccc(F)cc1)c1ccc2c(n1)CCCN2c1ncccc1F (stereo not drawn) [Example 375, 4-fluoro-N-(1-(5-(3-fluoropyridin-2-yl)-5,6,7,8-tetrahydro-1,5-naphthyridin-2-yl)ethyl)benzamide]
41.4 nM | C[C@H](NC(=O)c1ccc(F)cc1)c1ccc2c(n1)CCCN2c1cccc(=O)[nH]1 [Example 386, (S)-2-(1-(4-fluorobenzamido)ethyl)-5-(6-oxo-1,6-dihydropyridin-2-yl)-5,6,7,8-tetrahydro-1,5-naphthyridin-1-ium 2,2,2-trifluoroacetate]
4.4 nM | CCCOCCOC(=O)N1CCCc2nc(C(C)NC(=O)c3ccc(F)cc3)ccc21 (stereo not drawn) [Example 323, 2-propoxyethyl 6-(1-(4-fluorobenzamido)ethyl)-3,4-dihydro-1,5-naphthyridine-1(2H)-carboxylate]
21.1 nM | CC(NC(=O)c1ccc(F)cc1)c1ccc2c(n1)CCCN2C(=O)OCc1ccn(C)n1 (stereo not drawn) [Example 317, (1-methyl-1H-pyrazol-3-yl)methyl 6-(1-(4-fluorobenzamido)ethyl)-3,4-dihydro-1,5-naphthyridine-1(2H)-carboxylate]
